ChEMBL document CHEMBL1139649, “Hetaryl imidazoles: a novel dual inhibitors of VEGF receptors I and II” (Bioorg Med Chem Lett, 2006)

Tests used:
[1] = molecular target: RAC-alpha serine/threonine-protein kinase (Homo sapiens) (UniProt P31749); experiment: […] against PKB/Akt at 10 uM by HTRF method
[2] = molecular target: Bcr/Abl fusion protein (Homo sapiens) (UniProt P00519+P11274); experiment: Inhibition of bcr-Abl at 10 uM by HTRF method; format: protein assay; parameters: scale not given: the % may be the effect or the level left
[3] = molecular target: Vascular endothelial growth factor receptor 1 (Homo sapiens, UniProt P17948); experiment: Inhibition of VEGFR1 by enzymatic assay
[4] = molecular target: cAMP-dependent protein kinase (PKA) (Homo sapiens) (UniProt P22694+P17612+P22612); experiment: Inhibition against PKA at 10 uM by HTRF method; format: protein assay; parameters: scale not given: the % may be the effect or the level left
[5] = molecular target: T1, Vascular endothelial growth factor receptor 2 (Homo sapiens, UniProt P35968); experiment: Inhibition of VEGFR2 by enzymatic assay
[6] = molecular target: T2, Ephrin type-B receptor 4 (Homo sapiens) (UniProt P54760); experiment: Percent inhibition against EphB4 at 10 uM by HTRF method; parameters: scale not given: the % may be the effect or the level left
T2 sequence (whole entry): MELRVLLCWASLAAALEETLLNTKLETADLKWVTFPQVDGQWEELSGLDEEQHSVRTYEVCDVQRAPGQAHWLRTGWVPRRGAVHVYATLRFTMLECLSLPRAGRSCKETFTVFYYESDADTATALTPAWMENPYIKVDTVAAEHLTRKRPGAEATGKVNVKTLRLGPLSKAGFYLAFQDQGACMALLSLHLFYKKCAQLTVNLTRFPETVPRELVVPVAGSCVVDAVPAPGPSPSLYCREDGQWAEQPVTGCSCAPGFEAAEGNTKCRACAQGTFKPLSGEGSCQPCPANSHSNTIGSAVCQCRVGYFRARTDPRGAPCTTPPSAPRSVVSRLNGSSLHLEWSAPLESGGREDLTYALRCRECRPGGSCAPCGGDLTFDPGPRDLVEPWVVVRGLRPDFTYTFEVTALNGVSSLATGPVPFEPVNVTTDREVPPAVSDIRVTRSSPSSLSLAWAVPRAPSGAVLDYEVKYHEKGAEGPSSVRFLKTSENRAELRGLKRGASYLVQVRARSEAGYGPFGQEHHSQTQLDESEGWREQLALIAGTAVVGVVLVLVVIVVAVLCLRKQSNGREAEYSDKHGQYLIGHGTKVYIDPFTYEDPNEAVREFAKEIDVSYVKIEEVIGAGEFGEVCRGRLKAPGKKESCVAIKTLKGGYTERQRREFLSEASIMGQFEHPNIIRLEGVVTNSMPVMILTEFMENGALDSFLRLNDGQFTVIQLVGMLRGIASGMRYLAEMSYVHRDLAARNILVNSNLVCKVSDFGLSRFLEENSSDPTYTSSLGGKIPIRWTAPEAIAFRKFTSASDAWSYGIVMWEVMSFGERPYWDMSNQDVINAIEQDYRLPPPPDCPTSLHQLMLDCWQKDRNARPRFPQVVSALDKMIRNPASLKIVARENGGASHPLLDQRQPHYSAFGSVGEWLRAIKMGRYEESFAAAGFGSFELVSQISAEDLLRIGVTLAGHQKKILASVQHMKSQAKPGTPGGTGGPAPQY

[7] = molecular target: Epidermal growth factor receptor (Homo sapiens) (UniProt P00533); experiment: […] against ErbB1 at 10 uM by HTRF method
Chain of Epidermal growth factor receptor (Homo sapiens) (P00533 whole entry): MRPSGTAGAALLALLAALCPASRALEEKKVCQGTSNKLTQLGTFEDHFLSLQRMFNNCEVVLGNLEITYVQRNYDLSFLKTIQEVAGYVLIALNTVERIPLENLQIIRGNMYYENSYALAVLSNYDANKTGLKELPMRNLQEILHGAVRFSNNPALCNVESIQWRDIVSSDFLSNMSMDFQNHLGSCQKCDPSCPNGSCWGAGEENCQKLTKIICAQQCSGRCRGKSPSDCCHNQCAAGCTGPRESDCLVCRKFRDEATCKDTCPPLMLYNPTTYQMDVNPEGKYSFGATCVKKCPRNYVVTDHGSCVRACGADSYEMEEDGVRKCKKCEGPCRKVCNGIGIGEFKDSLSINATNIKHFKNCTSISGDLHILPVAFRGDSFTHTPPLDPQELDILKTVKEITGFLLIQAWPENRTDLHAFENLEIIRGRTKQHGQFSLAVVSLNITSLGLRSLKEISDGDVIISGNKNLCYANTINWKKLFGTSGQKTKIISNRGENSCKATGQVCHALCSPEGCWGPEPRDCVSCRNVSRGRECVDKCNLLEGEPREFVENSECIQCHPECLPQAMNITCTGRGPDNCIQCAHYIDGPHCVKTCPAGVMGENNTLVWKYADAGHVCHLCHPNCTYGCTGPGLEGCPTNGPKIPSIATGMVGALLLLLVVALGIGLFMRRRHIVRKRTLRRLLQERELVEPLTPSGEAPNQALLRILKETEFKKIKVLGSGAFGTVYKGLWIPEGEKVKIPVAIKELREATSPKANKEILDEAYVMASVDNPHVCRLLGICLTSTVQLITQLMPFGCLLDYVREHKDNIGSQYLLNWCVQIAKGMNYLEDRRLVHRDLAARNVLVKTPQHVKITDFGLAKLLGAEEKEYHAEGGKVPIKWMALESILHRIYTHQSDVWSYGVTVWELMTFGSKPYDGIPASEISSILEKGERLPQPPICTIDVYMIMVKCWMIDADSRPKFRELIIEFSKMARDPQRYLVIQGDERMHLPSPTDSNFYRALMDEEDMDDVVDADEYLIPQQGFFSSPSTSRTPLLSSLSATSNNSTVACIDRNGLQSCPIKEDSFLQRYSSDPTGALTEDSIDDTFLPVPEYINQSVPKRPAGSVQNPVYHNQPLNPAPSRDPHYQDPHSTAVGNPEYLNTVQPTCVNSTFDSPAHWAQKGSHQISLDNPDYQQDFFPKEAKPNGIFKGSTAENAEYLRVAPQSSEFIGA

[8] = molecular target: Hepatocyte growth factor receptor (Homo sapiens) (UniProt P08581); experiment: Percent inhibition against c-Met at 10 uM by HTRF method; parameters: scale not given: the % may be the effect or the level left
Chain of Hepatocyte growth factor receptor (Homo sapiens) (P08581 whole entry): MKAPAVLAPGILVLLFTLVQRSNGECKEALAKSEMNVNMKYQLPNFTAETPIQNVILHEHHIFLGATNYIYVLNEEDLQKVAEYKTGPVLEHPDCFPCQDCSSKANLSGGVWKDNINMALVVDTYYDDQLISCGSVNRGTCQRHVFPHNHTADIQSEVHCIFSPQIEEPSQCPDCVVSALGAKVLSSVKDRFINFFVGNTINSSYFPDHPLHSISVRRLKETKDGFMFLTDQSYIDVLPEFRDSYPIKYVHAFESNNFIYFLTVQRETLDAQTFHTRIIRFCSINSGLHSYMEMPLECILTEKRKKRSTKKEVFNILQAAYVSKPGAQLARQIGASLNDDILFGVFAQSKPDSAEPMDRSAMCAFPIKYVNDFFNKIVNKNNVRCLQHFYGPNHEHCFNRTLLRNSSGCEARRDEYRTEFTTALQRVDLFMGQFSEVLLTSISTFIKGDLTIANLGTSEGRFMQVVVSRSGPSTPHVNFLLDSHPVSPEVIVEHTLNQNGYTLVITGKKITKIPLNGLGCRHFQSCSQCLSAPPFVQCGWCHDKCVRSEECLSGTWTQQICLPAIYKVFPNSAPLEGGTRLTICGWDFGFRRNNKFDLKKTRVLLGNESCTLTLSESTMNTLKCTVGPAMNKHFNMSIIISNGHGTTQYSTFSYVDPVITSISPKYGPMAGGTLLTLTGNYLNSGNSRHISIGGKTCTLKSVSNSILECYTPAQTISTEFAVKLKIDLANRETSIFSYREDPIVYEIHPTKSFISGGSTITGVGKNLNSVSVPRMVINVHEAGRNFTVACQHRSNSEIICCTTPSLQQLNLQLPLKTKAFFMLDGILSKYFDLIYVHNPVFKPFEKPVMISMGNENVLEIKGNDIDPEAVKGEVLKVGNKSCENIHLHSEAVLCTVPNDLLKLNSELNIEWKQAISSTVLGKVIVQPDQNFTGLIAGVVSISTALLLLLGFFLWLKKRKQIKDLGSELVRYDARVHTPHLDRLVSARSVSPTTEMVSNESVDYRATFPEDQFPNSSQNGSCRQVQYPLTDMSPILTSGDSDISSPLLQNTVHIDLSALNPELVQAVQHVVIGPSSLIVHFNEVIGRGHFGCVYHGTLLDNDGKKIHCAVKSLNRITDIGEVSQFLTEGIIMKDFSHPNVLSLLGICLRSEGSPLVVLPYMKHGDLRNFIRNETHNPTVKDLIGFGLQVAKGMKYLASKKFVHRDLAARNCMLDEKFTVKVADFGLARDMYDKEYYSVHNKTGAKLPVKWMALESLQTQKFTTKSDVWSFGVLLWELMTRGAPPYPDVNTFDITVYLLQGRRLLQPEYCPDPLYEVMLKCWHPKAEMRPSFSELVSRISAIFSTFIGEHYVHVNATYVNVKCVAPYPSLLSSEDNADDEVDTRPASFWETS

[9] = molecular target: Glycogen synthase kinase-3 beta (Homo sapiens) (UniProt P49841); experiment: Inhibition against GSK3-beta at 10 uM by HTRF method; parameters: scale not given: the % may be the effect or the level left
Chain of Glycogen synthase kinase-3 beta (Homo sapiens) (P49841 whole entry, looked up): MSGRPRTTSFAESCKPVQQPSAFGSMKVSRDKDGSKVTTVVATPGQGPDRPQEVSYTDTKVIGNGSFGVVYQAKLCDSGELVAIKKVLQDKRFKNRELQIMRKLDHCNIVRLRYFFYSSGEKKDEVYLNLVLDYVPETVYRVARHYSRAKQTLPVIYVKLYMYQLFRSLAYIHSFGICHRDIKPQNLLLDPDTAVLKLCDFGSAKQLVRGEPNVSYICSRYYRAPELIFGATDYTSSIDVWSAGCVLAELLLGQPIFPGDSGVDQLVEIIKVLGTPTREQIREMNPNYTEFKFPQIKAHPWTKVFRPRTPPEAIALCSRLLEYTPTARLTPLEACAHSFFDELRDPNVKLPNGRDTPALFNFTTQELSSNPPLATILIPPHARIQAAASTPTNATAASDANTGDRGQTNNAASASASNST

[10] = molecular target: Insulin-like growth factor 1 receptor (Homo sapiens) (UniProt P08069); experiment: […] against IGF1R at 10 uM by HTRF method
[11] = molecular target: Receptor tyrosine-protein kinase erbB-2 (Homo sapiens) (UniProt P04626); experiment: […] against ErbB2 at 10 uM by HTRF method
[12] = molecular target: T1, Vascular endothelial growth factor receptor 2; experiment: Inhibition of VEGFR2 in 293 adenovirus transfected kidney cells by cell-based ELISA assay
[13] = molecular target: Receptor-type tyrosine-protein kinase FLT3 (Homo sapiens) (UniProt P36888); experiment: Inhibition of Flt3 at 10 uM by HTRF method; parameters: scale not given: the % may be the effect or the level left
[14] = molecular target: Cyclin-dependent kinase 2 (Homo sapiens) (UniProt P24941); experiment: […] against Cdk2 at 10 uM by HTRF method
[15] = molecular target: Cyclin-dependent kinase 5 (Homo sapiens) (UniProt Q00535); experiment: […] against Cdk5 at 10 uM by HTRF method
Chain of Cyclin-dependent kinase 5 (Homo sapiens) (Q00535 whole entry, looked up): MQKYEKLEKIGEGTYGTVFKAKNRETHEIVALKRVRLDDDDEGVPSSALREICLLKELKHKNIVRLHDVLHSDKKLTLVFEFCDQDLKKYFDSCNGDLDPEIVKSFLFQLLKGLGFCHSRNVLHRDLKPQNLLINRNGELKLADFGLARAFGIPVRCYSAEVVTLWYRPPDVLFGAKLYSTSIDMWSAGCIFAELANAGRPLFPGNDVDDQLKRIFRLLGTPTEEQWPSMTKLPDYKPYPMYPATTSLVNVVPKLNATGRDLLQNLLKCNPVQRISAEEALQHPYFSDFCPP

[16] = molecular target: Fibroblast growth factor receptor 1 (Homo sapiens) (UniProt P11362); experiment: Percent inhibition against FGFR1 at 10 uM by HTRF method; parameters: scale not given: the % may be the effect or the level left
Chain of Fibroblast growth factor receptor 1 (Homo sapiens) (P11362 22-822 limits assumed): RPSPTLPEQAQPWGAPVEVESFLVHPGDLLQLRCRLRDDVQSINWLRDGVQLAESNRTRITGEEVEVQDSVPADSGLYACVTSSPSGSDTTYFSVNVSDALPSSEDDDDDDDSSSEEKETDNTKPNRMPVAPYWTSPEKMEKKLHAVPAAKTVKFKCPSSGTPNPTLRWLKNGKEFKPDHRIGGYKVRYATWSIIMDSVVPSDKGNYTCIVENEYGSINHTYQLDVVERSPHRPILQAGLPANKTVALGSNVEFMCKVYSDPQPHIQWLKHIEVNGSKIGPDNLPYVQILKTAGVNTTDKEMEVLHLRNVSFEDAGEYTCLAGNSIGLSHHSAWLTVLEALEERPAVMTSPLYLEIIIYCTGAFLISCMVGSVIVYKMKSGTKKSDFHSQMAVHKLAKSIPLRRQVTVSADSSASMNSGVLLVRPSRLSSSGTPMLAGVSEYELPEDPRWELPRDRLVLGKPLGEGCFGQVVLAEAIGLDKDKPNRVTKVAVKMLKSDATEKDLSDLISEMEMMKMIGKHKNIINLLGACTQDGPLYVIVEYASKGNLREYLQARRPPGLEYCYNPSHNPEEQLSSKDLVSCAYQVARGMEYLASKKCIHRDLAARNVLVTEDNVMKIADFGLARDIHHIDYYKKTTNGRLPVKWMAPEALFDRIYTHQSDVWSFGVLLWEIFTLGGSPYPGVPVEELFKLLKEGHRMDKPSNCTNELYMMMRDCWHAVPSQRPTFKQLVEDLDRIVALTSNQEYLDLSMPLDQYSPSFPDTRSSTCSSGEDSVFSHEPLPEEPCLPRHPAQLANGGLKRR

Chain of RAC-alpha serine/threonine-protein kinase (Homo sapiens) (P31749 whole entry, the tested form may be a part): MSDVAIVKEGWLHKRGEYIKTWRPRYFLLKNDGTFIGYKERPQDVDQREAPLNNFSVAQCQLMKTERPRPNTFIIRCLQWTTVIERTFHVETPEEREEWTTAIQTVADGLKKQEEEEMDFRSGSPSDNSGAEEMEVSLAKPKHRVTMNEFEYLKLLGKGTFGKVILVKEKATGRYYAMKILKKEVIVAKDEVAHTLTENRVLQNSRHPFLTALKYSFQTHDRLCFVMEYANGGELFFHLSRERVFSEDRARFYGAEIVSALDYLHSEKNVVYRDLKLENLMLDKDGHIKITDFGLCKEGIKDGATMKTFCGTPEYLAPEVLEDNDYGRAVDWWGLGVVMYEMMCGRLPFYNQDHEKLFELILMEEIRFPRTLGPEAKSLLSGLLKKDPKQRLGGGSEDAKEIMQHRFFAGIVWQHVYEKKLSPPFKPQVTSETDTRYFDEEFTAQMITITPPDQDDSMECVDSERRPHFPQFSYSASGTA

Row | SMILES | Activity [1] [%] | Activity [2] [%] | IC50 [3] [µM] | Activity [4] [%] | IC50 [5] [µM] | Activity [6] [%] | Percent inhibition [7] [%] | Activity [8] [%] | Activity [9] [%] | Activity [10] [%] | Activity [11] [%] | IC50 [12] [µM] | Activity [13] [%] | Percent inhibition [14] [%] | Activity [15] [%] | Activity [16] [%]
1 | Cn1cnc(NCc2cccc3ncccc23)c1-c1nnc(Nc2ccc(Cl)cc2)o1 | < 30 | < 30 | > 10 | < 30 | 3.54 | < 30 | < 30 | < 30 | < 30 | < 30 | < 30 | > 10 | < 30 | < 30 | < 30 | < 30
2 | Cn1cnc(NCc2ccccn2)c1-c1nnc(Nc2ccc(Cl)cc2)o1 | < 30 | < 30 | > 10 | < 30 | > 10 | < 30 | < 30 | < 30 | < 30 | < 30 | < 30 | > 10 | < 30 | < 30 | < 30 | < 30
3 | Cn1cnc(NCc2ccncc2)c1-c1nnc(Nc2ccc(Cc3ccccc3)cc2)o1 | < 30 | < 30 | > 10 | < 30 | > 10 | < 30 | < 30 | < 30 | < 30 | < 30 | < 30 |  | < 30 | < 30 | < 30 | < 30
4 | Cn1cnc(NCc2ccncc2)c1-c1nnc(Nc2ccc(Oc3ccccc3)cc2)o1 | < 30 | < 30 | > 10 | < 30 | > 10 | < 30 | < 30 | < 30 | < 30 | < 30 | < 30 |  | < 30 | < 30 | < 30 | < 30
5 | Cn1cnc(NCc2ccncc2)c1-c1nnc(NCc2ccc3c(c2)OCO3)o1 | < 30 | < 30 | 0.44 | < 30 | 0.14 | < 30 | < 30 | < 30 | < 30 | < 30 | < 30 | 0.27 | < 30 | < 30 | < 30 | < 30
6 | Cn1cnc(NCc2ccc3ccccc3n2)c1-c1nnc(Nc2ccc(Cl)cc2)o1 | < 30 | < 30 | > 10 | < 30 | > 10 | < 30 | < 30 | < 30 | < 30 | < 30 | < 30 | > 10 | < 30 | < 30 | < 30 | < 30

Next, values leading:

Row | Activity [1] [%] | Activity [2] [%] | IC50 [3] [µM] | Activity [4] [%] | IC50 [5] [µM] | Activity [6] [%] | Percent inhibition [7] [%] | Activity [8] [%] | Activity [9] [%] | Activity [10] [%] | Activity [11] [%] | IC50 [12] [µM] | Activity [13] [%] | Percent inhibition [14] [%] | Activity [15] [%] | Activity [16] [%] | SMILES
7 | < 30 | < 30 | 0.34 | < 30 | 0.25 | < 30 | < 30 | < 30 | < 30 | < 30 | < 30 | 0.57 | < 30 | < 30 | < 30 | < 30 | Cn1cnc(NCc2ccncc2)c1-c1nnc(Nc2ccc(Cl)cc2)o1
8 | < 30 | < 30 | > 10 | < 30 | 3.22 | < 30 | < 30 | < 30 | < 30 | < 30 | < 30 |  | < 30 | < 30 | < 30 | < 30 | Cn1cnc(NCc2ccncc2)c1-c1nnc(Nc2ccc(-c3ccccc3)cc2)o1
9 | < 30 | < 30 | 1.47 | < 30 | 0.73 | < 30 | < 30 | < 30 | < 30 | < 30 | < 30 |  | < 30 | < 30 | < 30 | < 30 | Cn1cnc(NCc2ccncc2)c1-c1nnc(Nc2ccc(Br)cc2)o1
10 | < 30 | < 30 | 1.26 | < 30 | 0.71 | < 30 | < 30 | < 30 | < 30 | < 30 | < 30 |  | < 30 | < 30 | < 30 | < 30 | Cc1cccc(Nc2nnc(-c3c(NCc4ccncc4)ncn3C)o2)c1
11 | < 30 | < 30 | > 10 | < 30 | > 10 | < 30 | < 30 | < 30 | < 30 | < 30 | < 30 | > 10 | < 30 | < 30 | < 30 | < 30 | Cn1cnc(NCc2cccnc2)c1-c1nnc(Nc2ccc(Cl)cc2)o1
12 | < 30 | < 30 | 0.56 | < 30 | 0.046 | < 30 | < 30 | < 30 | < 30 | < 30 | < 30 | 0.13 | < 30 | < 30 | < 30 | < 30 | Cn1cnc(NCc2ccncc2)c1-c1nnc(Nc2cccc(OC(F)(F)F)c2)o1
13 | < 30 | < 30 | 0.89 | < 30 | 0.38 | < 30 | < 30 | < 30 | < 30 | < 30 | < 30 | 1.05 | < 30 | < 30 | < 30 | < 30 | Cn1cnc(NCc2ccncc2)c1-c1nnc(Nc2ccc(C(C)(C)C)cc2)o1
14 | < 30 | < 30 |  | < 30 |  | < 30 | < 30 | < 30 | < 30 | < 30 | < 30 |  | < 30 | < 30 | < 30 | < 30 | COc1ccccc1Nc1nnc(-c2c(NCc3ccncc3)ncn2C)o1
15 | < 30 | < 30 | > 10 | < 30 | > 10 | < 30 | < 30 | < 30 | < 30 | < 30 | < 30 |  | < 30 | < 30 | < 30 | < 30 | Cc1ccccc1Nc1nnc(-c2c(NCc3ccncc3)ncn2C)o1
